Results: patent publication US20110312898A1, “PROPHYLACTIC / THERAPEUTIC AGENT FOR CANCER” (Takeda Pharmaceutical Company Limited, priority 2008, published 2011)
Square brackets hold non-standard residues; d marks the D form. Arg(Me) = CNC(=N)NCCC[C@H](N)C(=O)O; Hyp = O=C(O)[C@@H]1C[C@@H](O)CN1; azaGly = NNC(=O)O

Columns and labels:
[1] = tested on: Dunning R3327-G cells; test: Androgen-independent antitumor effects, Dunning R3327-G cells implanted in orchiectomized Copenhagen rats; assay type: in vivo, rat; conditions: 50 nmol/kg/W, subcutaneous ALZET pump; day 52 following the start of dosing; compared with solvent group
Description: Dunning R3327-G cells, an androgen-sensitive rat prostate cancer cell line, were implanted into orchiectomized Copenhagen rats, and the androgen-independent antitumor effects by Compound No. 550 and Compound No. 723 were investigated.
R3327-G cells (7×10^6) were implanted subcutaneously in 10-week-old orchiectomized male Copenhagen rats. Fifty days after implantation, the rats were divided into groups based on the tumor volume, and were then assigned to a Compound 550—50 nmol/kg/W group, a Compound No. 723—50 nmol/kg/W group, and a solution group (each group consisting of 10 animals). The dose was calculated based on the mean weight of the animals on the day that dosing was begun. Administration was carried out by subcutaneous implantation in the dorsal region using an ALZET pump. The tumor diameter was measured on days 50, 65, 71, 78, 91 and 102 following cell implantation (days 0, 15, 21, 28, 41 and 52 following the start of dosing). The tumor volume (mm^3) was calculated as follows: major axis×minor axis^2÷2. Owing to deaths and the euthanization of animals in the course of the tests, on day 52 following the start of dosing (day 102 after transplantation), only six animals remained in the solution group and only seven animals remained in the Compound No. 723 group.

[2] = tested on: human prostate cancer cell line VCaP; test: Growth-inhibitory activity on VCaP spheroids (CellTiter-Glo); assay type: cell-based; conditions: 10% DCC-FCS
Protocol: Evaluation of the growth-inhibitory activity of the metastin peptide derivative using human prostate cancer cell line VCaP
Regarding Compound No. 723, the inhibitory activity on androgen-independent growth of human prostate cancer cell line VCaP (CRL-2876, American Type Culture Collection) was evaluated. […] in the state of three-dimensional culture (spheroid) was used in the evaluation. Specifically, VCaP cells were suspended in a DMEM medium (Ref. No. 11995, Invitrogen) containing 10% FCS (Cat. No. 171012, Cell Culture Bioscience) to set the concentration to 1.5×10^6 cells/mL. The obtained suspension was spotted on a cover of a tissue culture dish (Ref. No. 353003, FALCON) (20 μL for each) to perform Hanging drop culture (3×10^4 cells/drop). In order to prevent drying, 10 mL of DPBS (Ref. No. 14190, Invitrogen) was added to the culture dish. […]
(§1) Cell growth was quantified 9 days after the start of the treatment with Compound No. 723 by measuring the chemical luminescence evoked by cellular ATP using CellTiter-Glo Luminescent Cell Viability Assay (Promega). Wallac 1420 ARVO MX/Light (Parkin Elmer) was used for the measurement of the luminescence intensity.

[3] = tested on: human prostate cancer cell line 22Rv1; test: Growth-inhibitory activity on 22Rv1 spheroids (CellTiter-Glo); assay type: cell-based; conditions: 10% DCC-FCS
Protocol: Evaluation of the growth-inhibitory activity of the metastin peptide derivative using human prostate cancer cell line 22Rv1
Regarding Compound No. 723, the growth-inhibitory activity on androgen-independent human prostate cancer cell line 22Rv1 (CRL-2505, American Type Culture Collection) was evaluated. […] in the state of three-dimensional culture (spheroid) was used in the evaluation. Specifically, 22Rv1 cells were suspended in a RPMI1640 medium (Ref. No. 22400, Invitrogen) containing 10% FCS (Cat. No. 171012, Cell Culture Bioscience) to set the concentration to 1.5×10^6 cells/mL. The obtained suspension was spotted on a cover of a tissue culture dish (Ref. No. 353003, FALCON) (20 μL for each) to perform Hanging drop culture ([…]). In order to prevent drying, 10 mL of DPBS (Ref. No. 14190, Invitrogen) was added to the culture dish. […]
as §1

[4] = tested on: DU145; test: Antitumor activity in DU145 tumor-bearing male rat model; assay type: in vivo; conditions: microcapsule powder s.c. 10, 30 and 60 days after transplantation; No. 550 10 mg/kg, No. 723 1 or 10 mg/kg; 74 days after transplantation; vs surgically castrated group
Protocol: Evaluation of antitumor activity of the metastin peptide derivative in DU145 tumor-bearing male rat model
Antitumor activity of Compound No. 550 and Compound No. 723 against a DU145 tumor-bearing male rat model was evaluated. Specifically, 1×10^6 cells/100 μL suspension of DU145 (androgen-independent cell line, GPR54 highly expressing cell line, ATCC) was mixed with 100 μL of basement membrane matrix: Matrigel (trade name, BD Biosciences), and the obtained mixture was transplanted under the abdominal skin of 7-week-old F344/NJc1-rnu/rnu male rats (CLEA Japan, Inc.) which had been etherized. 10 days after the transplantation, the rats in which the volume of subcutaneous tumor reached 200 mm^3 were divided into 4 groups (Groups A-D, 10 rats for each group). […]
Regarding Group D, the rats were surgically castrated and used as the negative control group. […] 74 days after the transplantation of DU145 cells, the tumor volume (longer diameter×shorter diameter×shorter diameter/2) was measured. […]

Ac-D-Tyr-Hyp-Asn-Thr-Phe-AzaGly-Leu-Arg(Me)-Trp-NH2 (Ac-[dY][Hyp]NTF[azaGly]L[Arg(Me)]W-NH2) [Compound No. 723]
antitumor effects (tumor volume) [1]: significant antitumor effects
Luminescence intensity ([2]; 1 μM supplied every 12 hours for 8 days, 9 days after start of treatment, cellular ATP, n = 18, Control 564458 ± 27628): 507191 ± 73146
androgen-independent growth of human prostate cancer cells (VCaP) ([2]; 1 μM, vs control): significantly reduced the androgen-independent growth
Luminescence intensity ([3]; 1 μM supplied every 12 hours for 8 days, 9 days after start of treatment, cellular ATP, n = 18, Control 483469 ± 55917): 401291 ± 40565
growth of androgen-independent human prostate cancer cells (22Rv1) in the absence of androgen ([3]; 1 μM, vs control): significantly reduced the growth
antitumor effects (tumor volume) [4]: antitumor effects more than the surgical castration

Ac-[dY][dW]NTF[azaGly]L[Arg(Me)]W-NH2 [Compound No. 550]
antitumor effects (tumor volume) [1]: significant antitumor effects
antitumor effects (tumor volume) [4]: antitumor effects more than the surgical castration
